Test results as given in ChEMBL document CHEMBL1201862, “PubChem BioAssay data set” (2004).
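Dose response: 5 concentrations. Exposure: 48 h. Format: 96-well plates. Endpoint: linear interpolation; highest concentration if not reached. At the GI50, growth is halved.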 The source made the active and inactive calls. No stated cut-off is given here; in the data, active = GI50 up to about 1.1 µM and inactive = higher.

Tests used:
Assay in all cases: NCI tumour cell line growth inhibition, 48 h
CAKI-1 = system: CAKI-1
HCT-116 = system: HCT-116
SNB-75 = system: SNB-75
SK-OV-3 = system: SK-OV-3
SF-539 = system: SF-539
UACC-257 = system: UACC-257
HT-29 = system: HT-29
MCF7 = system: MCF7
786-0 = system: 786-0
MOLT-4 = system: MOLT-4
HCC 2998 = system: HCC 2998
UO-31 = system: UO-31
OVCAR-4 = system: OVCAR-4
NCI-H23 = system: NCI-H23
NCI-H226 = system: NCI-H226
MDA-MB-435 = system: MDA-MB-435
NCI-H460 = system: NCI-H460
CCRF-CEM = system: CCRF-CEM
A549 = system: A549
DU-145 = system: DU-145

Row | Structure (SMILES) | GI50 (CAKI-1) | GI50 (HCT-116) | GI50 (SNB-75) | GI50 (SK-OV-3) | GI50 (SF-539) | GI50 (UACC-257) | GI50 (HT-29) | GI50 (MCF7) | GI50 (786-0) | GI50 (MOLT-4) | GI50 (HCC 2998) | GI50 (UO-31) | GI50 (OVCAR-4) | GI50 (NCI-H23) | GI50 (NCI-H226) | GI50 (MDA-MB-435) | GI50 (NCI-H460) | GI50 (CCRF-CEM) | GI50 (A549) | GI50 (DU-145)
1 | COc1cccc(Nc2n[nH]c(NS(=O)(=O)c3cc(C)c(Cl)cc3S)n2)c1 | > 100 µM (inactive) | > 100 µM (inactive) | > 100 µM (inactive) | > 100 µM (inactive) | > 100 µM (inactive) | > 100 µM (inactive) | > 100 µM (inactive) | > 100 µM (inactive) | > 100 µM (inactive) | > 100 µM (inactive) | > 100 µM (inactive) | > 100 µM (inactive) | > 100 µM (inactive) | > 100 µM (inactive) | > 100 µM (inactive) | > 100 µM (inactive) | > 100 µM (inactive) | > 100 µM (inactive) | > 100 µM (inactive) | > 100 µM (inactive)
2 | CCCCCCOP(=O)(OCCCCCC)OC(C(=O)OC)C(F)(F)F (configuration not stated) | > 100 µM (inactive) | > 100 µM (inactive) | > 100 µM (inactive) | > 100 µM (inactive) | > 100 µM (inactive) | > 100 µM (inactive) | > 100 µM (inactive) | > 100 µM (inactive) | > 100 µM (inactive) | > 100 µM (inactive) | > 100 µM (inactive) | > 100 µM (inactive) | > 100 µM (inactive) | > 100 µM (inactive) | > 100 µM (inactive) | > 100 µM (inactive) | – | > 100 µM (inactive) | > 100 µM (inactive) | > 100 µM (inactive)
3 | Cc1nc(SCC(N)=O)c2sc(=S)n(-c3ccccc3)c2n1 | > 10 µM (inactive) | > 10 µM (inactive) | > 10 µM (inactive) | > 10 µM (inactive) | > 10 µM (inactive) | > 10 µM (inactive) | > 10 µM (inactive) | > 10 µM (inactive) | > 10 µM (inactive) | > 10 µM (inactive) | > 10 µM (inactive) | – | > 10 µM (inactive) | > 10 µM (inactive) | > 10 µM (inactive) | > 10 µM (inactive) | > 10 µM (inactive) | > 10 µM (inactive) | > 10 µM (inactive) | > 10 µM (inactive)
4 | CN(C)c1ccc(/C=C(\C#N)c2nc(-c3cc4ccccc4oc3=O)cs2)cc1 | > 50 µM (inactive) | 20 µM (inactive) | 1.72 µM (inactive) | 19.9 µM (inactive) | 8.89 µM (inactive) | > 50 µM (inactive) | > 50 µM (inactive) | > 50 µM (inactive) | 7.23 µM (inactive) | > 50 µM (inactive) | > 50 µM (inactive) | > 50 µM (inactive) | 24.9 µM (inactive) | – | 13.6 µM (inactive) | > 50 µM (inactive) | > 50 µM (inactive) | > 50 µM (inactive) | > 50 µM (inactive) | > 50 µM (inactive)
5 | Oc1cccc2cc(Cl)cnc12 | 55.1 µM (inactive) | 4.46 µM (inactive) | 28.1 µM (inactive) | 50.4 µM (inactive) | 10.3 µM (inactive) | 6.27 µM (inactive) | 28.2 µM (inactive) | 3.4 µM (inactive) | 23.6 µM (inactive) | 3.78 µM (inactive) | 27.1 µM (inactive) | 8.09 µM (inactive) | 3.38 µM (inactive) | 6.12 µM (inactive) | 27.4 µM (inactive) | 14.7 µM (inactive) | 6.95 µM (inactive) | 2.45 µM (inactive) | 7.08 µM (inactive) | 31.5 µM (inactive)
6 | COc1ccc(C(=O)/C=C/c2ccc(OCCCOc3ccc(/C=C/C(=O)c4ccc(OC)c(OC)c4)cc3)cc2)cc1OC | > 100 µM (inactive) | > 100 µM (inactive) | > 100 µM (inactive) | > 100 µM (inactive) | > 100 µM (inactive) | > 100 µM (inactive) | > 100 µM (inactive) | > 100 µM (inactive) | > 100 µM (inactive) | > 100 µM (inactive) | > 100 µM (inactive) | > 100 µM (inactive) | > 100 µM (inactive) | – | > 100 µM (inactive) | > 100 µM (inactive) | > 100 µM (inactive) | > 100 µM (inactive) | > 100 µM (inactive) | > 100 µM (inactive)
7 | COC(=O)C1CC2C=CC1N(C(=O)OCc1ccccc1)C2 (configuration not stated) | > 100 µM (inactive) | > 100 µM (inactive) | > 100 µM (inactive) | > 100 µM (inactive) | > 100 µM (inactive) | > 100 µM (inactive) | > 100 µM (inactive) | 98.2 µM (inactive) | > 100 µM (inactive) | 81.3 µM (inactive) | > 100 µM (inactive) | > 100 µM (inactive) | > 100 µM (inactive) | > 100 µM (inactive) | > 100 µM (inactive) | > 100 µM (inactive) | > 100 µM (inactive) | > 100 µM (inactive) | > 100 µM (inactive) | > 100 µM (inactive)
8 | CC(=O)/C(=C(/Br)I)c1ccccc1 | 3.03 µM (inactive) | 4.52 µM (inactive) | 14.2 µM (inactive) | 28.6 µM (inactive) | 16.6 µM (inactive) | 12.6 µM (inactive) | 4.06 µM (inactive) | 6.47 µM (inactive) | 9.04 µM (inactive) | 1.73 µM (inactive) | 6.81 µM (inactive) | 12.4 µM (inactive) | 12.5 µM (inactive) | 4.13 µM (inactive) | 7.45 µM (inactive) | 3.01 µM (inactive) | 20.3 µM (inactive) | 1.58 µM (inactive) | 20 µM (inactive) | 15.8 µM (inactive)
9 | Cc1ccc(S(=O)(=O)n2ccc(-c3ccc4ccn(S(=O)(=O)c5ccc(C)cc5)c4c3)c2)cc1 | > 100 µM (inactive) | > 100 µM (inactive) | 94.2 µM (inactive) | > 100 µM (inactive) | > 100 µM (inactive) | > 100 µM (inactive) | > 100 µM (inactive) | > 100 µM (inactive) | > 100 µM (inactive) | > 100 µM (inactive) | > 100 µM (inactive) | > 100 µM (inactive) | > 100 µM (inactive) | > 100 µM (inactive) | > 100 µM (inactive) | > 100 µM (inactive) | – | > 100 µM (inactive) | > 100 µM (inactive) | > 100 µM (inactive)
10 | Cc1cn(C2CC(N/C(=N/C#N)NCC3OC(n4cnc5c(N)ncnc54)CC3O)C(CO)O2)c(=O)[nH]c1=O (configuration not stated) | > 100 µM (inactive) | > 100 µM (inactive) | > 100 µM (inactive) | > 100 µM (inactive) | > 100 µM (inactive) | > 100 µM (inactive) | > 100 µM (inactive) | 1.04 µM (active) | > 100 µM (inactive) | > 100 µM (inactive) | > 100 µM (inactive) | > 100 µM (inactive) | > 100 µM (inactive) | > 100 µM (inactive) | > 100 µM (inactive) | > 100 µM (inactive) | > 100 µM (inactive) | > 100 µM (inactive) | > 100 µM (inactive) | > 100 µM (inactive)
11 | COc1cc(Cc2cc3c(c(C(=O)O)c2Br)OCO3)cc(OC)c1OC | > 100 µM (inactive) | 37 µM (inactive) | > 100 µM (inactive) | > 100 µM (inactive) | 29.6 µM (inactive) | > 100 µM (inactive) | > 100 µM (inactive) | 62.1 µM (inactive) | > 100 µM (inactive) | 56.8 µM (inactive) | > 100 µM (inactive) | > 100 µM (inactive) | > 100 µM (inactive) | > 100 µM (inactive) | > 100 µM (inactive) | 49.9 µM (inactive) | > 100 µM (inactive) | 34.6 µM (inactive) | > 100 µM (inactive) | > 100 µM (inactive)
12 | O=C(/C=C\c1ccccc1)N1CCc2ccccc2C1 | 67.1 µM (inactive) | 34.6 µM (inactive) | 52.7 µM (inactive) | > 100 µM (inactive) | 49.8 µM (inactive) | 38.9 µM (inactive) | 51.4 µM (inactive) | 49.7 µM (inactive) | 87.5 µM (inactive) | – | > 100 µM (inactive) | 39 µM (inactive) | 93.1 µM (inactive) | 14.9 µM (inactive) | > 100 µM (inactive) | 27.2 µM (inactive) | 60.3 µM (inactive) | 29 µM (inactive) | – | > 100 µM (inactive)
13 | O=c1c2ccc(Cl)cc2oc2c(CSc3ccccc3)cccc12 | > 38.5 µM (inactive) | 28.2 µM (inactive) | > 33.2 µM (inactive) | > 55 µM (inactive) | 24.5 µM (inactive) | > 57.9 µM (inactive) | 95.9 µM (inactive) | 29.1 µM (inactive) | > 61.5 µM (inactive) | 15.8 µM (inactive) | > 54.1 µM (inactive) | – | > 59.4 µM (inactive) | 28.4 µM (inactive) | 46.3 µM (inactive) | > 21.9 µM (inactive) | 23.8 µM (inactive) | 10.1 µM (inactive) | > 32.4 µM (inactive) | 70.5 µM (inactive)
14 | COC(C)(C)C(O)C(O)C[C@H](C)C1CC=C2C1(C)CCC1[C@@]3(C)CCC(OC(C)=O)C(C)(C)C3CC(OC3OC(COC(C)=O)C(O)C(O)C3O)[C@@]21C (some centres not stated) | > 10 µM (inactive) | 3 µM (inactive) | 3.7 µM (inactive) | > 10 µM (inactive) | 2.83 µM (inactive) | 3.02 µM (inactive) | 3.41 µM (inactive) | 3.33 µM (inactive) | 4.8 µM (inactive) | 1.93 µM (inactive) | 2.14 µM (inactive) | 0.287 µM (active) | 5.86 µM (inactive) | 4.85 µM (inactive) | 5.21 µM (inactive) | 3.24 µM (inactive) | 3.24 µM (inactive) | 3 µM (inactive) | 4.13 µM (inactive) | 7.1 µM (inactive)
